Key:
Glucosidase = settings: target Glucosidase; cited from earlier work
[1] = system: CD11c^IntMHCII^HighXCR1^+ cDC1s / OT-II cells; experiment: In vitro Ag-specific Treg induction: pLN cDC1s loaded with Ova-thy cells and naïve OT-II cells; assay type: cell-based, mouse; settings: untreated cells 25.5%

Compound | IC50 (Glucosidase) [nM] | FoxP3 expressing cells [1] [%]
O=c1cc(-c2ccc(O)cc2)oc2c([C@@H]3O[C@H](CO)[C@@H](O)[C@H](O)[C@H]3O)c(O)cc(O)c12 [Vitexin] | 48 | 
CEPO: chemically modified EPO analog in which the Lys residues are carbamylated [reference compound] |  | 69.3

— patent publication US12637513B2, “Method of treating cancer by administering an inhibitor of erythropoietin receptor activity comprising either erythropoietin receptor or erythropoietin protein” (ImmunEdge, Inc., priority 2022, dated 2026)
